System: BaF3 BRAF-KIAA1549 fusion cells
Test: BaF3 BRAF-KIAA1549 fusion cell proliferation assay
Type: cell-based
Settings: Mus musculus, BaF3, 96 h, read-out: IC50, inhibition of cell growth, BaF3-BRAF:KIAA1549 Fusion
Experimental: Retroviral Production: The BRAF-KIAA1549 fusion mutant was subcloned into pMXs-IRES-Blasticidin (RTV-016, Cell Biolabs, San Diego, CA). […]. Briefly, HEK 293T cells were plated in Poly-D-lysine coated 6-well plate (2.5×10^5 cells per well) and incubated overnight. The next day, retroviral plasmids (1 μg of BRAF-KIAA fusion mutant, 0.32 μg of pCMV-Gag-Pol and 0.165 μg pCMV-VSV-G) were mixed in 300 μL of Optimem (31985, Life Technologies). The mixture was incubated at room temperature for 5 minutes and then added to Optimem containing transfection reagent Lipofectamine (11668, Invitrogen) and incubated for 20 minutes. The mixture was then added dropwise to HEK 293T cells. The next day the medium was replaced with fresh culture medium and retrovirus was harvested at 24 hours.
Generation of BRAF-KIAA1549 fusion stable cell line: BaF3 cells were plated in V-bottom 96 well plate (COSTAR #3894) in 80 μL of RPMI/10% FBS and 0.01 ng/mL mouse IL-3, supplemented with 8 μg/mL polybrene (4×10^4 cells/well). Cells were transduced with 20 μL of BRAF-KIAA1549 fusion viral supernatant by centrifuging for 30 minutes at 1000 rpm. Cells were placed in a 37 °C incubator overnight. Next day 100 μL of RPMI/10% FBS and 0.01 ng/mL mouse IL-3 was added. After 24 hours, 100 μL of cells were transferred to a 24 well plate containing 900 μL of RPMI/10% FBS and 15 μg/mL Blasticidin. Contents of the 24 well plate were sampled for cell viability via CellTiterGlo (Promega) over a 2-week period.
Assay for cell proliferation: BaF3 BRAF-KIAA1549 fusion cells were resuspended at 1.5×10^5 c/mL in RPMI containing 10% Heat Inactivated FBS, 1% L-glutamine and dispensed in duplicate ([…]) into 384 well plates. To determine the effect of compound on cell proliferation, BaF3 BRAF-KIAA1549 fusion cells were incubated for 96 hours in the presence of vehicle control (DMSO) or compound at varying concentrations. Inhibition of cell growth was determined by luminescent quantification (Envision by Perkin Elmer) of intracellular ATP content using CellTiterGlo (Promega), according to the protocol provided by the manufacturer. To determine the IC50 values, the vehicle-treated cells were normalized as viable cells and analyzed using the CDD Vault, Collaborative Drug Discovery, Burlingame, CA (the Levenberg-Marquardt algorithm; Levenberg, K, […]; Marquardt, D., 1963).
Table A assigns each compound a code for potency in the BaF3 BRAF-KIAA1549 fusion cell proliferation assay: A, B, C, or D. According to the code, A represents an IC50 value<20 nM; B represents an IC50 value≥20 nM and <100 nM; C represents an IC50 value≥100 nM and <500 nM; and D represents an IC50 value≥500 nM.

Row | SMILES | IC50 [nM]
1 | CNc1cc2ncc(-c3c(C)ncc(NC(=O)c4cc(C(C)(C)C#N)ccn4)c3Cl)cc2cn1 [compound 197] | > 500
2 | CNc1cc2ncc(-c3cc(NC(=O)c4cccc5c4CCC[C@H]5O)cnc3C)cc2cn1 [compound 207] | > 500
3 | CNc1cc2ncc(-c3cc(NC(=O)N(C)c4cc(C(F)F)ccn4)ccc3C)cc2cn1 [compound 189] | 100 to 500
4 | CNc1cc2ncc(-c3cc(NC(=O)c4cnc5n4CCCC5)cnc3C)cc2cn1 [compound 209] | > 500
5 | CNc1cc2ncc(-c3cc(NC(=O)[C@@H](C)n4cnc(C(F)(F)F)n4)ccc3C)cc2cn1 [compound 69] | 100 to 500
6 | CNc1ncc2cc(-c3cc(NC(=O)c4ccnc(C(C)(C)C#N)c4)cnc3C)cnc2c1Cl [compound 270] | > 500
7 | CNc1cc2ncc(-c3cc(NC(=O)c4ccnc(C(F)F)c4)cnc3C)cc2cn1 [compound 28] | 100 to 500
8 | CNc1cc2ncc(-c3cc(NC(=O)c4cc(C(C)(C)F)ccn4)ccc3C)cc2cn1 [compound 13] | 100 to 500
9 | CNc1cc2ncc(-c3cc(NC(=O)c4cccc5c4CCCC5=O)cnc3C)cc2cn1 [compound 198] | > 500
10 | CNc1cc2c(C#N)cc(-c3cc(NC(=O)c4ccnc(C(F)(F)F)c4)ccc3C)cc2cn1 [compound 273] | 100 to 500
11 | CNc1cc2ncc(-c3cc(NC(=O)c4cnc5n4CCCC5)ccc3C)cc2cn1 [compound 216] | 100 to 500
12 | CNc1cc2ncc(-c3cc(NC(=O)c4ccc(OC(F)F)cn4)cnc3C)cc2cn1 [compound 72] | > 500
13 | CNc1cc2ncc(-c3cc(NC(=O)c4cc(C(C)(C)C#N)ccn4)cc(Cl)c3C)cc2cn1 [compound 48] | > 500
14 | CNc1cc2ncc(-c3cc(NC(=O)c4cnc5n4CC(C(F)F)CC5)cnc3C)cc2cn1 (centres unmarked) [compound 251] | 100 to 500
15 | CNc1cc2ncc(-c3cc(NC(=N)c4cc(C(F)(F)F)ccn4)cnc3C)cc2cn1 [compound 64] | > 500
16 | CNc1cc2ncc(-c3cc(NC(=O)c4cccc5c4CCC5O)cnc3C)cc2cn1 (centres unmarked) [compound 219] | > 500
17 | CCNc1cc2ncc(-c3cc(NC(=O)c4cc(C(C)(C)C#N)ccn4)cnc3C)cc2cn1 [compound 175] | 20 to 100

Row | SMILES | IC50 [nM]
18 | CNc1cc2ncc(-c3cc(NC(=O)c4cc(C(O)CC(F)(F)F)ccn4)cnc3C)cc2cn1 (centres unmarked) [compound 242] | 20 to 100
19 | CNc1cc2ncc(-c3cc(NC(=O)c4cc(C(F)(F)F)ccn4)nnc3C)cc2cn1 [compound 75] | 20 to 100
20 | CNc1cc2ncc(-c3cc(NC(=O)c4ccnc(C5(F)CC5)c4)c(F)cc3C)cc2cn1 [compound 221] | 20 to 100
21 | CNc1cc2ncc(-c3cc(NC(=O)c4ccnc(C5CC(F)(F)C5)c4)cnc3C)cc2cn1 [compound 34] | 20 to 100
22 | CNc1cc2ncc(-c3cc(NC(=O)c4ccnc(C(C)(C)C#N)c4)ccc3C)cc2cn1 [compound 56] | 20 to 100
23 | Cc1ccc(NC(=O)c2cc(C(C)(C)C#N)ccn2)cc1-c1ccc2c3c(ncc2c1)NC(=O)C3 [compound 275] | 20 to 100
24 | CNc1cc2ncc(-c3cc(NC(=O)c4cnc5n4CCC(C)C5)ccc3C)cc2cn1 (centres unmarked) [compound 195] | > 500
25 | CNc1cc2ncc(-c3cc(NC(=O)c4cnc5n4CCCCC5)cnc3C)cc2cn1 [compound 232] | 100 to 500
26 | CCNc1cc2ncc(-c3cc(NC(=O)c4ccnc(C5(F)CC5)c4)ccc3C)cc2cn1 [compound 153] | 20 to 100
27 | CNc1cc2ncc(-c3cc(C(=O)Nc4cc(C(C)(C)C#N)ccn4)cnn3)cc2cn1 [compound 213] | > 500
28 | CNc1cc2ncc(-c3cc(NC(=O)c4cc(C(C)(C)C#N)ccn4)cnc3C)cc2cn1 [compound 30] | 20 to 100
29 | CNc1cc2ncc(-c3cc(NC(=O)c4cc(C(C)(C)C#N)ccn4)c(F)cc3Cl)cc2cn1 [compound 37] | 20 to 100
30 | CNc1cc2ncc(-c3cc(NC(=O)c4cc(C(C)(C)C#N)ccn4)cc(F)c3F)cc2cn1 [compound 39] | 20 to 100
31 | CNc1cc2ncc(-c3cc(NC(=O)c4cc(C(O)(O)C(F)(F)F)ccn4)cnc3C)cc2cn1 [compound 206] | 20 to 100
32 | CNc1cc2ncc(-c3cc(NC(=O)c4cc(C5(C#N)CCC5)ccn4)cnc3C)cc2cn1 [compound 31] | 20 to 100
33 | CNc1cc2ncc(-c3cc(NC(=O)c4cc(C(C)(C)C#N)ccn4)c(F)c(F)c3C)cc2cn1 [compound 51] | > 500

More lines, now with the values ahead:

Row | IC50 [nM] | SMILES
34 | < 20 | CNc1cc2ncc(-c3cc(NC(=O)N4CC[C@@H](CC(F)(F)F)C4)ccc3C)cc2cn1 [compound 267]
35 | < 20 | CNc1cc2ncc(-c3cc(NC(=O)c4ccnc(C(C)(C)F)c4)ccc3C)cc2cn1 [compound 10]
36 | 20 to 100 | CNc1cc2ncc(-c3cc(NC(=O)c4cc([C@@H](C)C(C)(F)F)ccn4)cnc3C)cc2cn1 [compound 248]
37 | 20 to 100 | CNc1cc2ncc(-c3cc(NC(=O)c4cnc5n4CC(C)CC5)cnc3C)cc2cn1 (centres unmarked) [compound 225]
38 | < 20 | CNc1cc2ncc(-c3cc(NC(=O)c4cccc(N(C)C)c4)cnc3C)cc2cn1 [compound 19]
39 | < 20 | CNc1cc2ncc(-c3cc(NC(=O)C[C@@H]4C[C@H](C(F)(F)F)CCO4)ccc3C)cc2cn1 [compound 7]
40 | < 20 | CNc1cc2nc(C#N)c(-c3cc(NC(=O)c4ccnc(C(F)(F)F)c4)ccc3C)cc2cn1 [compound 79]
41 | 20 to 100 | CNc1cc2ncc(-c3cc(NC(=O)c4cnc5n4CCCC5C)ccc3C)cc2cn1 (centres unmarked) [compound 214]
42 | 20 to 100 | CCNc1cc2ncc(-c3cc(NC(=O)c4cc(C(C)(C)C#N)ccn4)ccc3C)cc2cn1 [compound 173]
43 | < 20 | CNc1cc2ncc(-c3cc(NC(=O)c4cc(C(F)(F)F)ccn4)cnc3C)cc2cn1 [compound 20]
44 | 20 to 100 | CNc1cc2ncc(-c3cc(NC(=O)C[C@@H]4C[C@H](C(F)(F)F)CCO4)cnc3C)cc2cn1 [compound 35]
45 | 20 to 100 | CNc1cc2ncc(-c3cc(NC(=O)c4cncc(C(F)(F)F)c4)cnc3C)cc2cn1 [compound 21]
46 | < 20 | Cc1ncc(NC(=O)c2cc(C(F)(F)F)ccn2)cc1-c1ccc2c3c(ncc2c1)NC(=O)C3 [compound 274]
47 | 20 to 100 | CNc1cc2ncc(-c3cc(NC(=O)c4n[nH]c5c4C[C@H](C)O[C@@H]5C)ccc3C)cc2cn1 [compound 264]
48 | 20 to 100 | CNc1cc2ncc(-c3cc(NC(=O)c4cc(C5(C#N)CCC5)ccn4)ccc3C)cc2cn1 [compound 15]
49 | 20 to 100 | CNc1cc2ncc(-c3cc(NC(=O)c4ccccc4NC(C)C(F)F)cnc3C)cc2cn1 (centres unmarked) [compound 226]
50 | 20 to 100 | CNc1cc2ncc(-c3cc(NC(=O)c4cc(C(C)(C)F)ccn4)cnc3C)cc2cn1 [compound 65]
51 | 20 to 100 | CNc1cc2ncc(-c3cc(NC(=O)c4cc(C(C)(C)C#N)ccn4)ccc3Cl)cc2cn1 [compound 41]
52 | < 20 | CNc1cc2ncc(-c3cc(NC(=O)c4nccc(C(F)(F)F)c4Cl)ccc3C)cc2cn1 [compound 6]
53 | < 20 | Cc1ccc(NC(=O)c2ccnc(C3(F)CC3)c2)cc1-c1cnc2cc(N)ncc2c1 [compound 154]
54 | 20 to 100 | CNc1cc2ncc(-c3cc(NC(=O)c4n[nH]c5c4CCCC5)cnc3C)cc2cn1 [compound 229]
55 | 20 to 100 | CNc1cc2ncc(-c3cc(NC(=O)c4noc5c4CC(F)(F)CC5)cnc3C)cc2cn1 [compound 247]
56 | 20 to 100 | CNc1cc2ncc(-c3cc(NC(=O)c4cc(C(O)C(C)C)ccn4)cnc3C)cc2cn1 (centres unmarked) [compound 202]
57 | 20 to 100 | CNc1ncc2cc(-c3cc(NC(=O)c4ccnc(C5(F)CC5)c4)ccc3C)cnc2c1C#N [compound 271]
58 | < 20 | CNc1cc2ncc(-c3cc(NC(=O)c4cncc(C(F)(F)F)c4)ccc3C)cc2cn1 [compound 3]
59 | < 20 | CNc1cc2ncc(-c3cc(NC(=O)c4ccnc(C5(F)CC5)c4)ccc3C)cc2cn1 [compound 18]
60 | < 20 | Cc1ccc(NC(=O)c2ccnc(C(C)(C)F)c2)cc1-c1ccc2c3c(ncc2c1)NC(=O)C3 [compound 276]
61 | < 20 | CNc1cc2ncc(-c3cc(NC(=O)c4ccnc(C5CC(F)(F)C5)c4)ccc3C)cc2cn1 [compound 17]
62 | < 20 | CNc1cc2ncc(-c3cc(NC(=O)c4nccc(C(F)(F)F)c4F)cnc3C)cc2cn1 [compound 52]

— US20260355169A1, “METHODS OF TREATING CANCERS USING ISOQUINOLINE OR 6-AZA-QUINOLINE DERIVATIVES” (Black Diamond Therapeutics, Inc., priority 2022, published 2026)
